The values that follow are results of earlier work, collected in the PKSmart pharmacokinetics tables (Seal et al. 2025).

The nature of this data set: Lombardo, Berellini, Obach 2018, Drug Metab Dispos 46:1466, doi 10.1124/dmd.118.082966. The note with it: human; for MRT / Vd / clearance / half-life: in vivo, iv; for fraction unbound: plasma.

Molecules are shown by their SMILES.

What is called MRT is a mean duration of stay, worked out from the concentration-time curve. A word on the Vd: it is the apparent volume that relates the amount in the body to the concentration in plasma or blood. One may read the clearance as the volume of plasma or blood freed of the substance per unit of time. In general, half-life refers to the time in which the quantity being followed falls by half. As for `C/C=C/c1cc(OC)c(OC)cc1OC`, the mean residence time (MRT) is 1.9 h, the Vd is 1 L/kg, the clearance was 8.8 mL/min/kg and the half-life is 3.7 h.
On to `C=C(C)[C@@H]1CCC(C)=C[C@H]1c1c(O)cc(CCCCC)cc1O`, for which the MRT was 8.23 h, the Vd is 6.69 L/kg, the clearance is 13.6 mL/min/kg and the half-life is 23.8 h.
As usually defined, the fraction unbound is free concentration divided by total concentration. Turning to `Cc1ncsc1CCCl`, the MRT is 3.3 h, the volume of distribution (Vd) is 6.6 L/kg, the clearance is 33 mL/min/kg and the half-life was 4.5 h. The fraction unbound was 0.36.
Take `CC(=O)NC(CS)C(=O)O` (stereo not given): the MRT was 3 h, the volume of distribution (Vd) was 0.55 L/kg, the clearance was 3.1 mL/min/kg and the half-life is 5.5 h. Also, the fraction unbound was 0.17.
`C[C@]12CCC(=O)C=C1CC[C@@H]1[C@@H]2[C@@H](O)C[C@@]2(C)[C@H]1CC[C@]2(O)C(=O)CO`: the mean residence time (MRT) was 1.9 h, the Vd was 0.38 L/kg, the clearance was 5.7 mL/min/kg and the half-life was 1.6 h.
Regarding `C#C[C@@]1(O)[C@@H](CO)O[C@H](n2ccc(N)nc2=O)[C@@H]1O`, the mean residence time MRT was 11.7 h, the Vd was 1.1 L/kg, the clearance was 1.6 mL/min/kg and the half-life is 10.9 h.
With `C#Cc1cccc(Nc2ncnc3cc(OCCOC)c(OCCOC)cc23)c1`, the MRT was 7.55 h, the Vd was 0.77 L/kg, the clearance was 1.69 mL/min/kg and the half-life is 6.5 h. Also, the fraction unbound was 0.07.
For the compound `CN1CCN(CC(=O)N2c3ccccc3C(=O)Nc3cccnc32)CC1`, the MRT was 10.3 h, the Vd is 1.71 L/kg, the clearance is 2.77 mL/min/kg and the half-life is 11.1 h.
Consider `CN(C)CCCN1c2ccccc2Sc2ccc(Cl)cc21`, for which the MRT is 10 h, the volume of distribution (Vd) is 10 L/kg, the clearance is 16 mL/min/kg and the half-life is 11 h.
As to `COc1cc2nc(N(C)CCCNC(=O)C3CCCO3)nc(N)c2cc1OC` (stereo not given), the MRT was 4.2 h, the Vd was 1.5 L/kg, the clearance was 5.9 mL/min/kg and the half-life was 4.8 h. Besides, the fraction unbound was 0.14.
For the compound `Clc1cccc(Cl)c1NC1=NCCN1`, the MRT is 14 h, the Vd is 3.3 L/kg, the clearance was 4 mL/min/kg and the half-life is 7.6 h. The fraction unbound was 0.56.
As to `CC1(C)S[C@@H]2C(NC(=O)C(NC(=O)N3CCN(/N=C/c4ccco4)C3=O)c3ccc(O)cc3)C(=O)N2C1C(=O)O` (stereo not given in full), the MRT was 0.92 h, the Vd is 0.2 L/kg, the clearance is 3.61 mL/min/kg and the half-life is 1.3 h.
As for `CCNC(=O)OC1CCN(c2nncc3cc(OC)c(OC)cc23)CC1`, the MRT is 0.25 h, the Vd was 0.67 L/kg and the fraction unbound is 0.08.
`COC(C(=O)N1Cc2[nH]nc(NC(=O)c3ccc(N4CCN(C)CC4)cc3)c2C1)c1ccccc1` (stereo not given): the mean residence time (MRT) is 6.8 h, the Vd was 2.5 L/kg, the clearance was 6.1 mL/min/kg and the half-life was 25 h.
Turning to `CC(C)(C)c1cnc(CSc2cnc(NC(=O)C3CCNCC3)s2)o1`, the MRT was 7.13 h, the Vd was 5.14 L/kg, the clearance was 13 mL/min/kg and the half-life was 9.3 h.
For the compound `CCCC[P@@](=O)(O)CCCN`, the clearance was 1.56 mL/min/kg and the half-life is 2.1 h.
Consider `CSCCNc1nc(SCCC(F)(F)F)nc2c1ncn2[C@@H]1O[C@H](CO[P@](=O)(O)O[P@](=O)(O)C(Cl)(Cl)P(=O)(O)O)[C@@H](O)[C@H]1O`, for which the MRT is 0.07 h, the Vd is 0.035 L/kg, the clearance is 9.06 mL/min/kg and the half-life was 0.14 h. The fraction unbound is 0.02.
Regarding `CN1CCN(C(c2ccccc2)c2ccccc2)CC1`, the mean residence time (MRT) is 15.5 h, the Vd was 16.5 L/kg, the clearance was 14.5 mL/min/kg and the half-life is 13.5 h.
Take `Cc1ccccc1C(=O)Nc1ccc(C(=O)N2CCC[C@H](O)c3cc(Cl)ccc32)c(C)c1`: the MRT was 3.5 h, the volume of distribution (Vd) was 0.5 L/kg, the clearance is 2.4 mL/min/kg and the half-life was 2.9 h. Besides, the fraction unbound is 0.01.
Turning to `CN(CC(N)=O)C(=O)N(CCCl)N=O`, the MRT is 1.4 h, the Vd is 0.76 L/kg, the clearance is 9 mL/min/kg and the half-life is 1 h.
On to `CC(CN1c2ccccc2Sc2ccccc21)N(C)C` (stereo not given), for which the fraction unbound was 0.09.
Take `CN(C)CCNC(=O)c1cccc2cc3ccccc3nc12`: the MRT was 3.49 h, the Vd was 3.41 L/kg, the clearance was 16.3 mL/min/kg and the half-life was 2.08 h. For the same compound, the fraction unbound is 0.03.
Regarding `O=C(c1ccc(F)c(F)c1Nc1ccc(I)cc1F)N1CC(O)([C@@H]2CCCCN2)C1`, the MRT was 96.6 h, the Vd is 15.4 L/kg, the clearance is 2.8 mL/min/kg and the half-life was 68.8 h. The fraction unbound was 0.05.
For the compound `CC(S)C(=O)NCC(=O)O` (stereo not given), the MRT is 15.7 h, the Vd was 1.39 L/kg, the clearance is 1.48 mL/min/kg and the half-life was 55 h. Also, the free fraction (fraction unbound) was 0.45.
For `O=C(Cn1cnnn1)NC1C(=O)N2C(C(=O)O)=C(CSc3nncs3)CS[C@H]12` (stereo not given in full), the clearance is 5.37 mL/min/kg and the half-life is 0.64 h.
Take `N#Cc1c(N2C[C@@H]3NCCO[C@H]3C2)c(F)cc2c(=O)c(C(=O)O)cn(C3CC3)c12`: the MRT is 4.11 h, the Vd was 1.42 L/kg, the clearance was 5.75 mL/min/kg and the half-life is 13.4 h. The fraction unbound was 0.75.
As to `C=CCN1CCC[C@H]1CNC(=O)c1cc(S(=O)(=O)NC)c(N)cc1OC`, the MRT is 7 h, the Vd was 2.3 L/kg, the clearance is 5.47 mL/min/kg and the half-life is 4.8 h.
In the case of `COc1c(N2CCC/C(=C(\F)CN)C2)c(F)cc2c(=O)c(C(=O)O)cn(C3CC3)c12`, the MRT is 24.2 h, the Vd is 1.13 L/kg, the clearance is 0.78 mL/min/kg and the half-life is 19.6 h. Besides, the unbound share (fraction unbound) is 0.34.
For `C/C(=C\c1csc(C)n1)[C@@H]1C[C@@H]2O[C@]2(C)CCC[C@H](C)[C@H](O)C(C)C(=O)C(C)(C)[C@@H](O)CC(=O)N1` (stereo not given in full), the MRT was 18 h, the Vd is 11 L/kg, the clearance is 10 mL/min/kg and the half-life was 17 h. Besides, the fraction unbound is 0.2.
In the case of `CC(C)C1C(=O)NC(CCCNC(=N)N)C(=O)NCC(=O)NC(CC(=O)O)C(=O)NC(Cc2ccccc2)C(=O)N1C` (stereo not given), the MRT was 3.67 h, the Vd was 0.26 L/kg, the clearance is 1.18 mL/min/kg and the half-life is 3.6 h.
